Results taken from PubChem BioAssay AID248 (DTP/NCI, 2004).
Where “and” joins values, the source holds several entries; their conditions need not be identical. Identical values can stand only once. Inconclusive results and toxic doses are left out. Rule as the data show it: active = T/C of 150% or more; inactive = T/C below 125%.

Test system: L1210 leukemia ip in BDF1 mice, survival T/C
Assay: NCI In Vivo Anticancer Drug Screen. Data for tumor model L1210 Leukemia (intraperitoneal) in B6D2F1 (BDF1) mice
Details: endpoint: mean survival time, higher = longer survival
Outline: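 Antitumor effect is assessed in tumor-bearing animals. Survival in the compound arm is compared with a vehicle-dosed control arm and expressed as their quotient.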

[1] = dose: 100.0 mg/kg/injection, schedule: Q04DX002 (ip), vehicle: Klucel (hydroxypropylcellulose) (HPC)
[2] = dose: 200.0 mg/kg/injection, schedule: Q04DX002 (ip), vehicle: Klucel (hydroxypropylcellulose) (HPC)
[3] = dose: 400.0 mg/kg/injection, schedule: Q04DX002 (ip), vehicle: Klucel (hydroxypropylcellulose) (HPC)
[4] = dose: 100.0 mg/kg/injection, schedule: Q01DX009 (ip), vehicle: Klucel (hydroxypropylcellulose) (HPC)
[5] = dose: 100.0 mg/kg/injection, schedule: Q04DX003 (ip), vehicle: Klucel (hydroxypropylcellulose) (HPC)
[6] = dose: 200.0 mg/kg/injection, schedule: Q01DX009 (ip), vehicle: Klucel (hydroxypropylcellulose) (HPC)
[7] = dose: 200.0 mg/kg/injection, schedule: Q04DX003 (ip), vehicle: Klucel (hydroxypropylcellulose) (HPC)
[8] = dose: 400.0 mg/kg/injection, schedule: Q01DX009 (ip), vehicle: Klucel (hydroxypropylcellulose) (HPC)
[9] = dose: 400.0 mg/kg/injection, schedule: Q04DX003 (ip), vehicle: Klucel (hydroxypropylcellulose) (HPC)
[10] = dose: 100.0 mg/kg/injection, schedule: Q01DX001 (ip), vehicle: Klucel (hydroxypropylcellulose) (HPC)
[11] = dose: 200.0 mg/kg/injection, schedule: Q01DX001 (ip), vehicle: Klucel (hydroxypropylcellulose) (HPC)
[12] = dose: 100.0 mg/kg/injection, schedule: Q01DX001 (ip), vehicle: saline with Tween-80
[13] = dose: 200.0 mg/kg/injection, schedule: Q01DX001 (ip), vehicle: saline with Tween-80
[14] = dose: 400.0 mg/kg/injection, schedule: Q01DX001 (ip), vehicle: saline with Tween-80
[15] = dose: 50.0 mg/kg/injection, schedule: Q01DX009 (ip), vehicle: Klucel (hydroxypropylcellulose) (HPC)
[16] = dose: 400.0 mg/kg/injection, schedule: Q01DX001 (ip), vehicle: Klucel (hydroxypropylcellulose) (HPC)
[17] = dose: 100.0 mg/kg/injection, schedule: Q01DX001 (ip), vehicle: saline
[18] = dose: 200.0 mg/kg/injection, schedule: Q01DX001 (ip), vehicle: saline
[19] = dose: 400.0 mg/kg/injection, schedule: Q01DX001 (ip), vehicle: saline
[20] = dose: 100.0 mg/kg/injection, schedule: Q04DX003 (ip), vehicle: saline
[21] = dose: 200.0 mg/kg/injection, schedule: Q04DX003 (ip), vehicle: saline
[22] = dose: 400.0 mg/kg/injection, schedule: Q04DX003 (ip), vehicle: saline

Measured: T/C

O=C(Nc1ccc(Cl)c(Cl)c1)OCc1cc[n+]([O-])cc1
inactive: [1] 103 % of control | [2] 98 % of control | [3] 106 % of control

Cc1nc(Cl)cc(=O)[nH]1
inactive: [4] 90 % of control | [5] 101 % of control | [6] 97 % of control | [7] 90 % of control | [8] 90 % of control | [9] 91 % of control

C=CCn1c(/N=C\N(C)C)cc(=O)[nH]c1=O
inactive: [4] 103 % of control | [5] 97 % of control | [6] 107 % of control | [7] 97 % of control | [8] 100 % of control | [9] 89 % of control

COc1ccccc1-n1c(=O)c(N=Nc2ccccc2C)c(O)n(-c2ccccc2Cl)c1=S
inactive: dose: 50.0 mg/kg/injection, schedule: Q01DX001 (ip), vehicle: Klucel (hydroxypropylcellulose) (HPC) 107 % of control | [10] 102 % of control | [11] 110 % of control

CSc1ccccc1NC(=O)c1ccccc1
inactive: [1] 93 % of control | [2] 86 % of control | [3] 96 % of control

F[Si](c1ccccc1)(c1ccccc1)c1cccc2ccccc12
inactive: [12] 96 % of control | dose: 100.0 mg/kg/injection, schedule: Q01DX009 (ip), vehicle: saline with Tween-80 98 % of control | [13] 102 % of control | dose: 200.0 mg/kg/injection, schedule: Q01DX009 (ip), vehicle: saline with Tween-80 92 % of control | [14] 94 % of control | dose: 400.0 mg/kg/injection, schedule: Q01DX009 (ip), vehicle: saline with Tween-80 93 % of control

CC(=O)Oc1c(C)cc(O)c2ccccc12
inactive: [15] 96 % of control | [4] 111 % of control | [6] 100 % of control

Clc1nc2ncn3cnnc3c2[nH]1
inactive: [10] 108 % of control | [11] 98 % of control | [16] 93 % of control

Oc1c(-c2ccccc2)c(-c2ccccc2)cc(-c2ccccc2)c1-c1ccccc1
inactive: [12] 102 % of control | [13] 94 % of control | [14] 88 % of control

ClC(Cl)(NC1CCCCC1)NC1CCCCC1
inactive: [17] 90 % of control | [18] 91 % of control | [19] 86 % of control

c1c[nH]c(C2Nc3ccccc3S2)c1 (centres undefined)
inactive: [17] 93 % of control | [18] 95 % of control

CCOC(=O)c1ccc(N(CC2CO2)S(=O)(=O)c2ccc(C)cc2)cc1 (centres undefined)
inactive: dose: 100.0 mg/kg/injection, schedule: Q04DX003 (ip), vehicle: saline with Tween-80 105 % of control | dose: 200.0 mg/kg/injection, schedule: Q04DX003 (ip), vehicle: saline with Tween-80 90 % of control | dose: 400.0 mg/kg/injection, schedule: Q04DX003 (ip), vehicle: saline with Tween-80 92 % of control

O=CC1(c2ccccc2)SCCCS1
inactive: [20] 106 % of control | [21] 97 % of control | [22] 100 % of control

C1[CH2][Hg][CH2]CO1
inactive: dose: 100.0 mg/kg/injection, schedule: Q04DX002 (ip), vehicle: saline 100 % of control | dose: 200.0 mg/kg/injection, schedule: Q04DX002 (ip), vehicle: saline 100 % of control

N#Cc1nc2ccc(Cl)cc2nc1C#N
inactive: dose: 25.0 mg/kg/injection, schedule: Q01DX009 (ip), vehicle: Klucel (hydroxypropylcellulose) (HPC) 104 % of control | [15] 105 % of control | [4] 95 % of control and 102 % of control

COc1cc(NC(=O)CC(C)=O)cc2c(C)cc(=O)[nH]c12
inactive: [10] 104 % of control | [5] 102 % of control | [11] 96 % of control | [7] 107 % of control | [16] 102 % of control | [9] 102 % of control

COc1nc(Cl)nc2c1c(C#N)cn2C1OC(CO)C(O)C1O (centres undefined)
inactive: dose: 100.0 mg/kg/injection, schedule: Q01DX005 (ip), vehicle: saline 113 % of control

CN(C)C=NC1CCC(CC2CCCCC2)CC1 (centres undefined)
inactive: dose: 75.0 mg/kg/injection, schedule: Q04DX003 (ip), vehicle: Klucel (hydroxypropylcellulose) (HPC) 92 % of control | [10] 96 % of control | dose: 150.0 mg/kg/injection, schedule: Q04DX003 (ip), vehicle: Klucel (hydroxypropylcellulose) (HPC) 100 % of control | [11] 95 % of control | dose: 300.0 mg/kg/injection, schedule: Q04DX003 (ip), vehicle: Klucel (hydroxypropylcellulose) (HPC) 97 % of control

CCCCCCCCCCCCCCCCS(=O)CCCCCCCCCCCCCCCC
inactive: [15] 88 % of control | [4] 92 % of control

O=C1CCC(=O)C2CC=CCC12 (centres undefined)
inactive: dose: 100.0 mg/kg/injection, schedule: Q## X003 (ip), vehicle: saline 101 % of control | dose: 200.0 mg/kg/injection, schedule: Q## X003 (ip), vehicle: saline 108 % of control | dose: 400.0 mg/kg/injection, schedule: Q## X003 (ip), vehicle: saline 98 % of control

c1ccc(-c2c(-c3ccccc3)c(-c3ccccc3)c(-c3ccc(Oc4ccc(-c5c(-c6ccccc6)c(-c6ccccc6)c(-c6ccccc6)c(-c6ccccc6)c5-c5ccccc5)cc4)cc3)c(-c3ccccc3)c2-c2ccccc2)cc1
inactive: [12] 92 % of control | [13] 92 % of control | [14] 100 % of control

CC(=O)c1ccc(N2CCN(c3ccc(C(C)=O)cc3)CC2)cc1
inactive: [20] 93 % of control | [21] 95 % of control | [22] 98 % of control

CN(C)/N=N\c1nc[nH]c1C(=O)NC1CCCCC1
inactive: dose: 10.0 mg/kg/injection, schedule: Q01DX001 (ip), vehicle: saline with Tween-80 100 % of control | dose: 20.0 mg/kg/injection, schedule: Q01DX001 (ip), vehicle: saline with Tween-80 94 % of control | dose: 40.0 mg/kg/injection, schedule: Q01DX001 (ip), vehicle: saline with Tween-80 96 % of control | dose: 75.0 mg/kg/injection, schedule: Q01DX009 (ip), vehicle: saline with Tween-80 98 % of control | dose: 150.0 mg/kg/injection, schedule: Q01DX009 (ip), vehicle: saline with Tween-80 109 % of control | dose: 300.0 mg/kg/injection, schedule: Q01DX009 (ip), vehicle: saline with Tween-80 101 % of control

CC(=O)Nc1ccc(SC2(Sc3ccc(NC(C)=O)cc3)c3ccccc3-c3ccccc32)cc1
inactive: [17] 92 % of control | [18] 98 % of control | [19] 100 % of control
